For one assay, the system named is trabecular bone. Nature of the assay: Micro-CT analysis of trabecular bone. It counts as in vivo, mice. The procedure:
The limbs were scanned on a Viva CT 40 (Scanco Medical, Bruttisellen, Switzerland) using a 55-kVp, 145-uA current and a 300-ms integration time with a resolution of 12.5 μm. Trabecular analysis was conducted on a 1.25-mm region 50 μm above the growth plate in the femur and a 625-μm 50 um below the growth plate in the tibia. Cortical analysis was conducted 4.375 mm above/below the growth plate of the femur/tibia for a distance of 375 μm.
Due to the dramatic induction of osteoblastic VEGF-A observed in the setting of PTH stimulation, the functional relevance of this signal in multiple aspects of BM microenvironmental activation was analyzed.

The test system of another assay is LSKs. The assay is described as follows: Growth and survival of LSKs cultured in cytokine-supplemented media. Format: cell-based, mice. The conditions noted are these: increasing concentrations of αVEGF.
For assay [1], the system named is hematopoietic stem and progenitor cells (HSPCs). Nature of the assay: Flow cytometric analysis of bone marrow HSPCs from treated mice. It counts as in vivo, C57B1/6 mice. The conditions noted are these: for PTH-induced expansion of phenotypic and functional BM HSPCs: αVEGF in combination with PTH. How it is done:
All drugs were administered by intraperitoneal injection. Following 10 days of treatment, mice were sacrificed (on the morning of the eleventh day) and samples were harvested. Hindlimb bone marrow samples were used to generate the data for FIG. 8A as well as for the competitive transplantation of whole bone marrow. Hindlimb bone marrow was harvested by crushing the right hindlimb of each mouse individually using a sterile mortar and pestle in 2.5 mL phosphate buffered saline, filtered through a 40 um cell strainer and placed on ice. For flow cytometric analysis, fresh, filtered bone marrow cells were subjected to a red blood cell lysis procedure using ammonium chloride and then prepared for flow cytometry by staining with a panel of fluorescently-conjugated antibodies recognizing markers of hematopoietic stem and progenitor cells. Samples were then run on an LSR-II 12 color flow cytometer and data was analyzed using TreeStar's FlowJo software. Statistics between treatment groups were analyzed by student's T test. […]
In general terms: Flow cytometry measures light scatter and fluorescence of single cells or particles in a stream.

Assay [2] relates to CD31+ Sca1+ BM endothelial cells. The assay is described as follows: Flow cytometry of CD31+ Sca1+ bone marrow endothelial cells. Format: in vivo, mice. The conditions noted are these: bevacizumab 0.7 mg/kg once per day with PTH thrice per day 10 days, vs PTH alone. How it is done: All drugs were administered by intraperitoneal injection. Following 10 days of treatment, mice were sacrificed (on the morning of the eleventh day) and samples were harvested. Hindlimb bone marrow samples were used to generate the data for FIG. 8A as well as for the competitive transplantation of whole bone marrow. Hindlimb bone marrow was harvested by crushing the right hindlimb of each mouse individually using a sterile mortar and pestle in 2.5 mL phosphate buffered saline, filtered through a 40 um cell strainer and placed on ice. For flow cytometric analysis, fresh, filtered bone marrow cells were subjected to a red blood cell lysis procedure using ammonium chloride and then prepared for flow cytometry by staining with a panel of fluorescently-conjugated antibodies recognizing markers of hematopoietic stem and progenitor cells. Samples were then run on an LSR-II 12 color flow cytometer and data was analyzed using TreeStar's FlowJo software. Statistics between treatment groups were analyzed by student's T test.
Methods of administration and analysis of the effects of PTH either alone or in combination are described above. To determine whether bone anabolic, HSPC-expanding regimens of PTH stimulation alter the vascular niche, mice were first treated intensively with PTH and the hindlimb BM vasculature was analyzed. PTH increased BM vascular structures per hindlimb section (femur and tibia) by histomorphometric analysis (FIG. 9A) as well as the area occupied by vasculature measured within the tibial metaphysis (FIG. 9B). To clarify whether intensive PTH treatment was vasodilatory to existing vessels or increasing de novo endothelial structures, BMCs of PTH-treated mice were analyzed phenotypically by flow cytometry (FIG. 9D). Intensive PTH treatment expanded populations of BM endothelial cells defined by this immunophenotyic signature (FIG. 9E). […] This expansion of small BM blood vessels was also observed in close association with both trabecular and cortical bone when CD31 immunostaining was examined in the BM (FIG. 9E). The PTH-induced increase in endothelial structures was accompanied by an increase in perivascular α smooth muscle actin (αSMA+) (FIG. 9F), indicating a concomitant increase in perivascular, HSPC supportive stromal cells.

The test system of the next assay is CD105+ mesenchymal cells. Nature of the assay: Flow cytometry of CD105+/Endoglin+ CD45− bone marrow mesenchymal cells. It counts as in vivo, C57B1/6 mice. The settings on record: bevacizumab with PTH(1-34) or vehicle, 10 days. The procedure:
When administered to a live animal, pimonidazole-HCl precipitates in cells containing<14 μM oxygen or pO2<10 mm Hg and can be detected immunohistochemically. […] FIG. 7A is a schematic of VEGF-blocking experiment. […] FIG. 7B is a graph showing frequency of CD31+ Sca1+ bone marrow endothelial cells isolated from C57B1/6 mice treated as indicated. FIG. 7C is a graph showing frequency of
CD105+/Endoglin+ CD45− non-hematopoietic bone marrow mesenchymal cells isolated from C57B1/6 mice treated as indicated. *P<0.05, **P<0.01

Setting [3] is: αVEGF during TID PTH, effect on the effects of PTH.
Where [4] appears, read: αVEGF, baseline or PTH-enhanced.

Turning to “bevacizumab: anti-VEGF-A monoclonal antibody bevacizumab (referred to as αVEGF); humanized monoclonal antibody”, the “connectivity density of the trabecular bone” value in the assay with trabecular bone (setting [3]) is given as “augment”. In addition, in the assay on trabecular bone (setting [3]), the “number of bony trabeculae” value is listed as “augment”. Moreover, the “bone anabolic action of PTH” value in the assay on trabecular bone (αVEGF in combination with PTH) is “without blocking”. Also, the trabecular bone volume entry with trabecular bone (setting [4]) was “did not significantly alter”. Besides, the trabecular spacing result in the assay on trabecular bone (setting [4]) is “did not significantly alter”. Also, the “growth and survival of LSKs” value in the assay on LSKs is “not significantly affected”. In addition, the “PTH-mediated expansion of HSCs (Flt3−, CD48−, CD150+ LSKs)” value in assay [1] (VEGF inhibition with PTH) is reported as “did not diminish”. Further, in assay [1] (anti-VEGF therapy with or without PTH), the HSPCs result was “expands”. The “PTH-induced expansion of multipotent progenitor/short term repopulating HSPCs (MPP/ST-HSPCs)” value in assay [1] (bevacizumab and PTH vs PTH alone) is “augmented”. Further, the entries for the “PTH-induced expansion of phenotypic and functional BM HSPCs” value in assay [1] and in assay [1] (listed as anti-VEGF-A treatment) were “further increased” and “augments”, respectively. The “Flt3+, CD48−, CD150− LSKs” value in assay [1] (αVEGF in the setting of PTH) is listed as “trend towards an increase”; in assay [1] (αVEGF treatment alone) it was “expanded”. Further, the “hematopoietic lineage−, Sca1+, c-kit+ cells (LSKs)” value in assay [1] (αVEGF in the setting of PTH) is “trend towards an increase”; in assay [1] (αVEGF treatment alone), “expanded”. The figures for the “PTH-mediated expansion of BM endothelial cells” value in assay [2] (listed as Bevacizumab), in assay [2] (listed as anti-VEGF therapy) and in assay [2] (listed as αVEGF) were “blunted”, “blocks” and “significantly decreased”, respectively. The “CD105+ mesenchymal cells” value in the assay with CD105+ mesenchymal cells was “does not reduce”.
